Results taken from patent US20260216336A1, “NEW PSORALEN COMPOUND” (NAGASAKI UNIVERSITY, priority 2022, published 2026).
Like-named read-outs stand apart in the source and are kept apart here.

Assays:
DNA [1] = details: background statement on commercially available reagent; cited from earlier work
DNA [2] = experiment: DNA crosslinking efficiency of psoralen reagents (general statements, no method given); format: biochemical; details: studies conducted by the inventors

For `Cc1oc2c(C)c3oc(=O)cc(C)c3cc2c1COCCCCCCOP(OCCC#N)N(C(C)C)C(C)C` (centres unmarked) [Psoralen C6 Phosphoramidite, 6-[4′-(Hydroxymethyl)-4,5′,8-trimethylpsoralen]-hexyl-1-O-(2-cyanoethyl)-(N,N-diisopropyl)-phosphoramidite], the DNA crosslinking efficiency (DNA [1]) is given as “favorable DNA crosslinking efficiency”.

With `O=C(CCCOc1c2occc2cc2ccc(=O)oc12)ON1C(=O)CCC1=O` [SPB, succinimidyl-[4-(psoralen-8-yloxy)]butyrate] the DNA crosslinking efficiency (DNA [2]) was “very low”.
